Where two headings read alike, the source gives them in different places.

Here are results for six compounds from patent publication US4980365A, “N-substituted-5,6-dimethoxy-1,2-benzisoxazole-3-propanamine and related compounds as analgesic and hypotensive agents” (Hoechst-Roussel Pharmaceuticals Inc., priority 1987, dated 1990).

Assay [1] has as its system 2-phenyl-1,4-benzoquinone-induced writhing. In words: 2-phenyl-1,4-benzoquinone-induced writhing test in mice (analgesic activity, phenylquinone writhing). The conditions noted are these: Mus musculus, sc, read-out: ED50 (Analgesic Activity, Phenylquinone Writhing). The class given is in vivo. The text has this: Compounds of this invention having formula I are useful as analgesic agents due to their ability to alleviate pain in mammals. […] Exptl. Biol. Med. […], 729 (1957)].
A general note: Writhing tests count abdominal constrictions after an irritant is injected.

Assay [2] has as its system spontaneous hypertensive rat. In words: Antihypertensive activity in the spontaneous hypertensive rat, indirect tail cuff method. The class given is in vivo. The conditions noted are these: at 50 mg/kg, p.o.; treated orally for three days, measured on the third day. The procedure: Compounds of the present invention are also useful as antihypertensive agents due to their ability to depress blood pressure in mammals. Antihypertensive activity is measured in the spontaneous hypertensive rat by the indirect tail cuff method described in "Methods in Pharmacology", A. Schwartz, Ed., Vol. I, Appleton-Century Crofts, New York, N.Y., 1971, p. 135. In this procedure a group of five animals are treated orally for three days with the test compound in relation to a control group of the same number. The drop in blood pressure is measured on the third day following administration. The antihypertensive activities of some of the compounds, expressed as a decrease in mean arterial blood pressure (in mm Hg), are given in Table 2.

In another assay the target is α1-adrenergic receptor. In words: [3H]-WB4101: α1-adrenergic receptor binding in rat brain. Conditions: rat brain membranes minus cerebella, 0.5 nM 3H-WB4101, pH 7.7, 15 minutes; read-out: [3H]-WB4101: α1-Adrenergic Receptor (IC50) Antagonist Activity.

Experimental for α1-adrenergic receptor: RECEPTOR BINDING IN RAT BRAIN
This in vitro [^3 H]-WB4101 receptor binding assay quantitates the primary blood pressure lowering effects through α1 -receptor blockade. […] WB4101 labels an antagonist binding site on the α1 -adrenoceptor, since it is preferentially displaced by antagonists while α-noradrenergic agonists preferentially displace the ^3 H-agonists
57.2 g Tris HCl 16.2 g Tris base q.s. to 1 liter (0.5M Tris buffer, pH 7.7 at 25° C.).
Make a 1:10 dilution in distilled H2 O (0.05M Tris Buffer, pH 7.7)
[Phenoxy-3-^3 H(N)]-WB4101, (2-(2,6-dimethoxyphenoxyethyl)aminomethyl-1,4-benzodioxane, (20-25 Ci/mmol) is obtained from New England Nuclear.
L-norepinephrine bitartrate is obtained from Sigma Chemical Co.
A 10 mM stock solution of norepinephrine is made up in 0.01N HCl and 20 micro liter added to three tubes to determine nonspecific binding. This yields a final concentration of 100 micro liter in the assay.
For most assays, a 1 mM stock solution is made up in a suitable solvent and serially diluted, such that the final concentration in the assay ranges from 10^-5 to 10^-8 M. Seven concentrations are usually used for each assay.
Male Wistar rats (100-150 g) are killed by decapitation and their brains rapidly removed. […]
Sample tubes are kept on ice for additions, then vortexed and incubated for 15 minutes at 15° C. […] The filters are counted in 10 ml of liquid scintillation cocktail. […]

`COc1cc2onc(CCCNCCc3ccc(F)cc3)c2cc1OC.Cl` [N-[2-(4-fluorophenyl)ethyl]-5,6-dimethoxy-1,2-benzisoxazole-3-propanamine hydrochloride]: the ED50 (usually the dose that gives a 50% effect, or the effect in half of the subjects) in assay [1] (mice) amounted to 3.8 mg/kg.

For the compound `COc1ccc([C@@H]2Sc3ccccc3N(CCN(C)C)C(=O)[C@@H]2OC(C)=O)cc1` [Diltiazem, reference compound], the “Pressure Drop (decrease in mean arterial blood pressure)” value in assay [2] came to 39 mmHg. For `COc1cc2onc(CCCN3CCN(c4ccccc4OC)CC3)c2cc1OC` [3-[3-[4-(2-methoxyphenyl)-1-piperazinyl]propyl]-5,6-dimethoxy-1,2-benzisoxazole], in assay [1] (mice), the ED50 is 1.7 mg/kg. Also, in assay [2], the “Pressure Drop (decrease in mean arterial blood pressure)” value was 68 mmHg. As for `COc1cc2onc(CCCNCCc3ccccc3)c2cc1OC.Cl` [N-(2-phenylethyl)-5,6-dimethoxy-1,2-benzisoxazole-3-propanamine hydrochloride], on α1-adrenergic receptor, the IC50 (as a rule, the concentration that gives 50% inhibition) stood at 83 nM. The “Pressure Drop (decrease in mean arterial blood pressure)” value in assay [2] was determined as 32 mmHg. In the case of `CC(C)=CCN1CCC2(C)c3cc(O)ccc3CC1C2C` (stereo not drawn) [pentazocine, reference compound], in assay [1], the ED50 was 1.3 mg/kg.

Turning to `COc1cc2onc(CCCN(C)CCc3ccccc3)c2cc1OC.O=C(O)C(=O)O` [N-methyl-N-(2-phenylethyl)-5,6-dimethoxy-1,2-benzisoxazole-3-propanamine oxalate], at α1-adrenergic receptor, the IC50 was determined as 67 nM. In assay [1] (mice), the ED50 amounted to 13.6 mg/kg.
